This experiment has as its system H9^DF hESCs. Description: Bioluminescent imaging of transplanted hESC survival under immunosuppressive drug treatment. The settings on record: for BLI signal by post-transplant day 10: single drug treatment groups. Format: in vivo, BALB/c mice. As for the experimental part: H1, H9 and H9DF hESCs were initially maintained on top of murine embryonic fibroblasts feeder (MEF) layers as detailed in SI Methods. To prevent contamination of the transplanted hESC population with MEF, hESC colonies were separated from MEF by incubation with dispase (Invitrogen) and subcultured on feeder-free matrigel (hESC qualified, BD Biosciences) coated 6-well plates in mTeSR™ 1 maintenance medium (Stem Cell Technologies) for 2 to 5 passages. MHC expression on hESCs was evaluated by flow cytometry as detailed in SI Methods. Shortly prior to transplantation, hESCs were trypsinated, and resuspended in sterile PBS at 1×10^6 cells per 20 μl. hESC transplantation was performed by direct injection into gastrocnemius muscles of recipient mice (using a 29.5 gauge insulin syringe.
BLI was performed using the Xenogen In Vivo Imaging System as previously described (38). Briefly, mice were anesthetized with isoflurane and D-luciferin was administered intraperitoneally at a dose of 375 mg/kg body weight. At the time of imaging, animals were placed in a light-tight chamber, and photons emitted from luciferase expressing hESCs transplanted into the animals were collected with integration times of 5 sec-5 min, depending on the intensity of the bioluminescence emission. The same mice were scanned repetitively as per the study design. BLI signal was quantified in units of photons per second (Total flux) and presented as Log[photons/sec].

Each structure is given as a SMILES string.

As to `COc1c(C)c2c(c(O)c1C/C=C(\C)CCC(=O)OCCN1CCOCC1)C(=O)OC2` [MMF, mycophenolate mofetil], the “BLI signal by post-transplant day 10” value was “decreased to background levels”. Moreover, where the note is “over single TAC and/or SIR treatment”, the “improvement of hESC survival by addition of MMF” value is recorded as “did not result in significant improvement”. In the case of `CO[C@H]1C[C@@H]2CC[C@@H](C)[C@@](O)(O2)C(=O)C(=O)N2CCCC[C@H]2C(=O)O[C@H]([C@H](C)C[C@@H]2CC[C@@H](O)[C@H](OC)C2)CC(=O)[C@H](C)/C=C(\C)[C@@H](O)[C@@H](OC)C(=O)[C@H](C)C[C@H](C)/C=C/C=C/C=C/1C` [SIR, sirolimus], the “BLI signal at day 7” value (monotherapy, 1×10^6 H9^DF hESCs in gastrocnemius muscle, NT 4.98±0.04, P<0.05) was 6.4±0.29 Log^[photons/sec].

Turning to `C=CC[C@@H]1/C=C(\C)C[C@H](C)C[C@H](OC)[C@H]2O[C@@](O)(C(=O)C(=O)N3CCCC[C@H]3C(=O)O[C@H](/C(C)=C/[C@@H]3CC[C@@H](O)[C@H](OC)C3)[C@H](C)[C@@H](O)CC1=O)[C@H](C)C[C@@H]2OC` [TAC, Tacrolimus], the “BLI signal by post-transplant day 10” value is “decreased to background levels”.

The values above are taken from patent US8945862B2, “Triple-fusion constructs and methods of monitoring human embryonic stem cells” (The Board of Trustees of the Leland Stanford Junior …, priority 2007, dated 2015).
